In paper PMC5594551, “Heterogeneous drug penetrance of veliparib and carboplatin measured in triple negative breast tumors” (Breast Cancer Research : BCR, 2017):

Tests used:
nuclear DNA [1] = experiment: Platinum adducts (covalent nuclear DNA-binding) by ICP-MS in TNBC xenograft tumor sections; format: in vivo, beige SCID mice
Procedure: Thirty-nine mice were euthanized approximately 3 h after the last dose of veliparib and 24 h after the last dose of carboplatin; two mice used in the DCE-MRI pilot were euthanized 1.5 h after single-dose administration of veliparib and carboplatin (Fig. 1). Bilateral xenograft tumors and liver and muscle (quadriceps) tissues were harvested. Tissues were cut into three pieces and either embedded in optimum cutting temperature (OCT) formulation or were directly snap frozen in liquid-nitrogen-cooled isopentane and stored at − 80 °C until analysis. […] A separate fresh-frozen portion of each tissue per animal was ground for quantification of veliparib and carboplatin by LC-MS. Method development and details of the techniques are described in Additional file 1a-c. […]
b). Technical aspects of the ICP-MS method development. […]
(§1) DNA extraction procedure:
(§2) The DNA extraction was based on previous publications. 4 In short, 44 μL 1 mol L −1 NH4HCO3, 20 μL 20% (w/v) SDS, and 6 μL 1% (w/v) proteinase K solution were added successively, and incubated for 24hours using a thermomixer. After the digestion was complete, 146 μL saturated 6 mol L−1 NaCl was added to each tube and the tubes were shaken vigorously to precipitate proteins. The tubes were centrifuged for 10min at 2000 g and the supernatant containing the DNA was transferred to another tube. Subsequently, the supernatant was shaken, centrifuged, and transferred to another tube. Following this, 1.5ml absolute ethanol was added to precipitate the DNA and centrifuged from 30 minutes at 21 Kg at 4°C. The DNA was washed twice with 75% ethanol and was subsequently dissolved in 30 μL water. DNA concentrations were analyzed by measuring the absorbance at 260 nm using Nanodrop 1000 spectophotometer (NanoDrop).
(§3) Carboplatin adduct quantification:
(§4) The quantity of the carboplatin-adducts per mg DNA was quantified (Figure S8) using a previously validated […]
(§5) Figure S8: Example graph of mass spectrum of platinum in DNA extraction by ICP-MS.

[2] = Carboplatin one-compartment plasma PK model in mice; format: in vivo, beige SCID mice
Procedure: The PK of carboplatin in mice was assessed using a one-compartment model with bolus intravenous injection.
e) Supplements of the PK-model development.

nuclear DNA [3] = experiment: Platinum adducts by ICP-MS in PBMCs from patients (carboplatin + talazoparib phase 1); format: in vivo
Procedure: Carboplatin and platinum adducts were determined in a limited number of blood samples from a previously presented phase 1 clinical trial (NCT02358200). […] In the case of grade 3 or grade 4 toxicity, carboplatin and/or talazoparib doses were held until below grade 1 and resumed at a lower dose level. Blood samples were obtained from a limited number of patients during cycle 1 day 1 (prior to talazoparib dosing) and cycle 2 day 1 pre-dose and up to 24 h post dose, and PBMCs were derived at day 15 post dose, DNA was extracted as described in Additional file 1d and platinum adducts were quantified by ICP-MS (Additional file 1b).
The platinum adduct formation in PBMCs in 19 patients was linked to carboplatin concentrations in plasma using the Eq 1. […] In this model, we tested the hypothesis that PARPi interact with platinum formation. […] The formation of adducts correlated with the number of lymphocytes (P < 0.0001) and the gBRCA mutation status (P < 0.0001). […]
b). Technical aspects of the ICP-MS method development.
PBMCs were extracted from whole blood using by centrifugation. Lysis of red blood cells was performed as needed, then PMBCs were washed and resuspended in A limited number of 5-15 mL heparinised or EDTA whole blood samples from the PK study talazoparib/carboplatin phase 1 study were included. Following centrifugation for 15 min at 1,000 g, plasma was extracted and the PBS was added to a total volume of 9.5 ml to the remaing fraction. PMBCS were extracted using density-gradient centrifugation with Ficoll-Paque Plus® (Pharmacia, Uppsala, Sweden) at room temperature for 20 min at 400 g. PBMCs were washed twice with ice-cold PBS and centrifuged at 800 G for 5 minustes at 4 °C. Cells were counted and ther resuspended in 1 mL buffer containing 10 mmol L−1 Tris- HCl, 2.3% (w/v) NaCl, and 2 mmol L−1 EDTA disodium salt at pH 7.3.
as §1, §2, §3, §4, §5
(1 picture or pasted object on this page, not shown here)
Supplementary Table 2: PK patients estimates carboplatin and platinum adducts Structural model PK Estimat RS
Inter-individual variability on Platinum adduct formation (RPT) 317% proportional residual error plasma carboplatin 28% 26 […]
proportional residual error adduct formation 110% 6%
Platinum adduct formation:
CL=clearance, V=volume of distribution, KA= rate of absorption, RPT= ratio of carboplatin adduct formation, KPT= rate of carboplatin adduct formation, gBRCA = germline BRCA carrier […]
(also on this page, place not known: ( )adductsC−×× plasmaCRPT KPT=dt dCadducts)

MDA-MB-436 = conditions: MDA-MB-436, BRCA1-mutated; ref [23], [25]; cited from earlier work
[4] = Veliparib plasma and tumor PK model (NONMEM) in xenograft mice; conditions: for Kp: beige SCID (Fox Chase)
Procedure: PK-analyses were performed using nonlinear mixed-effects modeling (NONMEM VII Software, ICON Development Solutions, San Antonio, TX, USA), using the first-order conditional estimation with interaction (FOCEI) method. The model-building procedure was guided by the likelihood ratio test, diagnostic plots and internal model validation techniques, including visual predictive checks and bootstrap analysis. The effect of dose, concentration and cell source on TNBC xenograft tissue concentrations was assessed. The variability between animals was assessed using two components: one consistent difference common to all TNBC xenograft tissue samples from left and right mouse tumor and one mouse-specific difference (RRES) to understand the inter-individual and intra-individual variability.
Intra-animal error tumor 28% 21% 19%
proportional residual error plasma 13% 42% 8%
proportional residual error tumor 23% 19% 7%
proportional residual error plasma 41% 22% 9%

MDA-MB-231 = tested on: MDA-MB-231; design: method as in PMID 21633166, PMID 21707865; conditions: ref [23], [25]; cited from earlier work

Question: For `N.N.O=C([O-])C1(C(=O)[O-])CCC1.[Pt+2]` [carboplatin], which “Median conc. (RSE %), carboplatin adducts” value (“Median conc. (RSE %)” for short) (nuclear DNA [1]; HCC70 xenografts) is on record?
Answer: 1.85 μmol/g DNA

Question: What about the “Median conc. (RSE %)” value (nuclear DNA [1]; HCC70 xenografts, listed as Carboplatin) of the same compound?
Answer: 1.85 (42%) μmol/g DNA

Question: And the “Median conc. (RSE %)” value (nuclear DNA [1]; MDA-MB-231 xenografts)?
Answer: 0.55 μmol/g DNA

Question: What about the “Median conc. (RSE %)” value (nuclear DNA [1]; MDA-MB-231 xenografts, listed as Carboplatin) of the same compound?
Answer: 0.55 (23%) μmol/g DNA

Question: What about the “Median conc. (RSE %)” value (nuclear DNA [1]; MDA-MB-436 xenografts) of the same compound?
Answer: 0.54 μmol/g DNA

Question: And the “Median conc. (RSE %)” value (nuclear DNA [1]; MDA-MB-436 xenografts, listed as Carboplatin)?
Answer: 0.54 (27%) μmol/g DNA

Question: What about the “Median conc. (RSE %)” value (nuclear DNA [1]; all TNBC xenograft tissue, 24 h after two carboplatin administrations, ICP-MS) of the same compound?
Answer: 0.55 (30%) μmol/g DNA

Question: And the “Median conc. (RSE %)” value (nuclear DNA [1]; carboplatin combined with placebo)?
Answer: 0.476 (57) μmol/g DNA

Question: And the “Median conc. (RSE %)” value (nuclear DNA [1]; carboplatin combined with veliparib 60mg/kg for 3 days)?
Answer: 0.977 (33) μmol/g DNA

Question: What about the Median platinum adducts (nuclear DNA [1]; xenograft tumor sections) of the same compound?
Answer: 546.3 nmol/g DNA

Question: What about the “Clearance and volume of distribution of carboplatin with co-dosed veliparib (drug-drug interaction)” value ([2]; 0, 20 or 60 mg/kg veliparib doses) of the same compound?
Answer: not significantly different

Question: And the “Half-life (t1/2)” value ([2]; beige SCID mice plasma)?
Answer: 21 min

Question: What about the CL ([2]; mice plasma) of the same compound?
Answer: 34.2 mL/h

Question: And the “Interindividual variability on CL” value ([2]; mice plasma)?
Answer: 6%

Question: What about the Vd ([2]; mice plasma) of the same compound?
Answer: 17.5 mL

Question: And the “RPT, ratio of adducts compared to plasma concentration” value (nuclear DNA [3]; 19 patients)?
Answer: 0.5%

Question: What about the “Median conc. (RSE %)” value (nuclear DNA [3]; PBMCs from patients, ICP-MS) of the same compound?
Answer: 0.0552 (30%) μmol/g DNA

Question: What about the “Ratio of adducts in PBMCs/plasma concentration” value (nuclear DNA [3]; five gBRCA carriers) of the same compound?
Answer: 0.64%

Question: And the “Ratio of adducts in PBMCs/plasma concentration” value (nuclear DNA [3]; nine non-carriers)?
Answer: 0.29%

Question: And the “RPT (%) carboplatin adducts, model estimate” value (nuclear DNA [3]; non-carriers, Supplementary Table 2)?
Answer: 1.20%

Question: What about the Median platinum adducts (nuclear DNA [3]; patient PBMC samples) of the same compound?
Answer: 55.2 nmol/g DNA

Question: What about the “Time platinum adducts remain detectable post dose” value (nuclear DNA [3]; patient PBMC samples) of the same compound?
Answer: up to 15 days

Question: What about the “Median platinum adducts, equivalent per blood volume” value (nuclear DNA [3]; patient PBMC samples, per L blood) of the same compound?
Answer: 81.4 pg/L

Question: And the “Inter-individual variability on platinum adduct formation (RPT)” value (nuclear DNA [3]; patients)?
Answer: 317%

Question: What about the “Adduct formation, single-agent treatment at day 1 versus combination with talazoparib” value (nuclear DNA [3]; patients PBMCs) of the same compound?
Answer: no statistical difference

Question: And the “KPT, formation rate of adducts from plasma” value (nuclear DNA [3]; patients PBMCs)?
Answer: 0.0156 L/h

Question: What does the source list for `C[C@]1(c2nc3c(C(N)=O)cccc3[nH]2)CCCN1` [veliparib]?
Answer: Sensitivity in vitro (MDA-MB-436): sensitivity; Kp ([4]; mouse, tumor (HCC70 xenograft), oral, Penetration from plasma to xenograft tumor (ratio, RPT), HCC70 xenografts): 0.75; Kp ([4]; mouse, tumor (MDA-MB-231 xenograft), oral, Penetration from plasma to xenograft tumor (ratio, RPT), MDA-MB-231 xenografts): 0.36; Kp ([4]; mouse, tumor (MDA-MB-436 xenograft), oral, Penetration from plasma to xenograft tumor (ratio, RPT), MDA-MB-436 xenografts): 0.46; Kp ([4]; mouse, tumor (TNBC xenografts), oral, Veliparib transferred from plasma to TNBC xenografts, across the three xenograft types): 0.35 to 0.74; Km ([4]; beige SCID, mouse, plasma, oral): 26.2 µg/mL; Interindividual variability on F plasma ([4]; mouse PK model): 13%; Interindividual variability on tumor penetration (between tumors in different animals) ([4]; mouse PK model): 37%; Intra-animal variability tumor (within the tumor sections of an animal) ([4]; mouse PK model): 28%; Q tumor ([4]; mouse PK model): 0.0694 mL/h; V ([4]; mouse plasma PK model): 10.1 mL; V2 ([4]; mouse plasma PK model): 0.0168 mL; Vmax ([4]; mouse plasma PK model): 1.86 mL/h; KA ([4]; mouse plasma PK model, oral gavage): 2.11 h⁻¹; KPT, rate of transfer from plasma to tumor ([4]; mouse tumor PK model): 900 mL/h; Sensitivity in vitro (MDA-MB-231): sensitivity
